Experimental data from PMC12372887, “Mechanism and cellular actions of the potent AMPK inhibitor BAY-3827” (Science Advances, 2025).

Key:
Assay in all cases: Kinase panel (140 human kinases)
Format in all cases: biochemical
ABL = ABL (Homo sapiens, UniProt P00519)
In short: (§1)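 Single-point profiling at 0.1 μM; BAY-3827 also at 1 μM. ^33P-ATP radiometric filter-binding format, duplicates. ATP 5/20/50 μM (≤ Km for each enzyme). Readout: % residual activity, mean ± SD.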

CAMK1 = CAMK1 (Homo sapiens, UniProt Q14012)
In short: as §1

CDK2-Cyclin A = CDK2-Cyclin A (Homo sapiens, UniProt P24941)
In short: as §1

CDK9-Cyclin T1 = CDK9-Cyclin T1 (Homo sapiens, UniProt P50750)
In short: as §1

CK1δ = CK1δ (Homo sapiens, UniProt P48730)
In short: as §1

CK2 = CK2 (Homo sapiens, UniProt P68400)
In short: as §1

CLK2 = CLK2 (Homo sapiens, UniProt P49760)
In short: as §1

DYRK1A = DYRK1A (Homo sapiens, UniProt Q13627)
In short: as §1

EPH-A4 = EPH-A4 (Homo sapiens, UniProt P54764)
In short: as §1

FGF-R1 = FGF-R1 (Homo sapiens, UniProt P11362)
In short: as §1

GSK3b = GSK3b (Homo sapiens, UniProt P49841)
In short: as §1

HIPK1 = HIPK1 (Homo sapiens, UniProt Q86Z02)
In short: as §1

IRR = IRR (Homo sapiens, UniProt P14616)
In short: as §1

MAPKAP-K2 = MAPKAP-K2 (Homo sapiens, UniProt P49137)
In short: as §1

MARK1 = MARK1 (Homo sapiens, UniProt Q9P0L2)
In short: as §1

MARK2 = MARK2 (Homo sapiens, UniProt Q7KZI7)
In short: as §1

MEKK1 = MEKK1 (Homo sapiens, UniProt Q13233)
In short: as §1

MELK = MELK (Homo sapiens, UniProt Q14680)
Sequence of MELK (Q14680 whole entry): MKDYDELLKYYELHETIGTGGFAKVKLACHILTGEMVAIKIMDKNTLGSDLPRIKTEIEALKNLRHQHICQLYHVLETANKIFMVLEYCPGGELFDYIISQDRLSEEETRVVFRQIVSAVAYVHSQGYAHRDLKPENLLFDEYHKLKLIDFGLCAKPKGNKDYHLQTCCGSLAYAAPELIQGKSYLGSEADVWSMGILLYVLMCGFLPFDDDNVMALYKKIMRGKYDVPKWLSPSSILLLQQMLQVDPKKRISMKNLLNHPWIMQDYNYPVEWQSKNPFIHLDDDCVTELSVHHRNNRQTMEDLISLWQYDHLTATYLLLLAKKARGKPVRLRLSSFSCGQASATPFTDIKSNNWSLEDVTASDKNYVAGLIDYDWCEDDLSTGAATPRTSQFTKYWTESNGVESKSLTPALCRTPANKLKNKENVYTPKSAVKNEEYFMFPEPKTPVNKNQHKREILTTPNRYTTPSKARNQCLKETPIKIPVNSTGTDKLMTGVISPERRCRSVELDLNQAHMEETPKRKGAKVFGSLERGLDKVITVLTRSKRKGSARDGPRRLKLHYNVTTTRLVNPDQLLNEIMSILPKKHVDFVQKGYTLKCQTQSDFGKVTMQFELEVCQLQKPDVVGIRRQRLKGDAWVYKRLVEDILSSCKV
In short: as §1

MKK1 = MKK1 (Homo sapiens, UniProt Q02750)
Sequence of MKK1 (Q02750 whole entry): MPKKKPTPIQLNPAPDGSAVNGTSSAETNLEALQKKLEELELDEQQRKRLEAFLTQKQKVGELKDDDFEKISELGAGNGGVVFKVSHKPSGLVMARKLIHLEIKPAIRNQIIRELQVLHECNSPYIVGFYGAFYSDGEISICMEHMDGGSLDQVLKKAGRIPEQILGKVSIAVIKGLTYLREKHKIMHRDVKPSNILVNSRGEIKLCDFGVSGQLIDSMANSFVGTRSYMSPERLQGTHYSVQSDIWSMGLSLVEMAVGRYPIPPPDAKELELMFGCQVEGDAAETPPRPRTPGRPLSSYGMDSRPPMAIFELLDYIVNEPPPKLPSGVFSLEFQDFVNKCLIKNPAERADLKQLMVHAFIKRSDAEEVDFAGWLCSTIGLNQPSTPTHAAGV
In short: as §1

MKK2 = MKK2 (Homo sapiens, UniProt P36507)
In short: as §1

MKK6 = MKK6 (Homo sapiens, UniProt P52564)
Sequence of MKK6 (P52564 whole entry): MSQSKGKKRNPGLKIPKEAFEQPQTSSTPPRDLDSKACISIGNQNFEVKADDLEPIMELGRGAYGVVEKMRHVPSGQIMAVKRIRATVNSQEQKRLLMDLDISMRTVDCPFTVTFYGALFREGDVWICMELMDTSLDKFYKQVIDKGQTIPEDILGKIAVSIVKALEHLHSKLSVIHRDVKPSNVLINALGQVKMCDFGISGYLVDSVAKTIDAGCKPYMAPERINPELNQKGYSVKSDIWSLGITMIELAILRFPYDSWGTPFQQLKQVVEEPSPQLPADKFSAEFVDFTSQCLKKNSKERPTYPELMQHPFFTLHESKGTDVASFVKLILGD
In short: as §1

MNK1 = MNK1 (Homo sapiens, UniProt Q9BUB5)
In short: as §1

PAK2 = PAK2 (Homo sapiens, UniProt Q13177)
In short: as §1

PAK5 = PAK5 (Homo sapiens, UniProt Q9P286)
In short: as §1

PIM1 = PIM1 (Homo sapiens, UniProt P11309)
Sequence of PIM1 (P11309 whole entry): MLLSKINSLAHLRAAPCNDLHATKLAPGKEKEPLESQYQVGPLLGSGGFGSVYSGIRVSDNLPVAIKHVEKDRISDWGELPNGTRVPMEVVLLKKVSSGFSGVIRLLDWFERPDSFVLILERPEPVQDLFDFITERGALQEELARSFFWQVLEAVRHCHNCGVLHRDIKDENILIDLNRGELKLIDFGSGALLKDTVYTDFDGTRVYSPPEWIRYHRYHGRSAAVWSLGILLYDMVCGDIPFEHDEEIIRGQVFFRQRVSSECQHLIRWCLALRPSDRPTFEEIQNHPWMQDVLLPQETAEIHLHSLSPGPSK
In short: as §1

PIM3 = PIM3 (Homo sapiens, UniProt Q86V86)
In short: as §1

PKCγ = PKCγ (Homo sapiens, UniProt P05129)
In short: as §1

PKD1 = PKD1 (Homo sapiens, UniProt Q15139)
In short: as §1

PRK2 = PRK2 (Homo sapiens, UniProt Q16513)
In short: as §1

RSK1 = RSK1 (Homo sapiens, UniProt Q15418)
Sequence of RSK1 (Q15418 whole entry): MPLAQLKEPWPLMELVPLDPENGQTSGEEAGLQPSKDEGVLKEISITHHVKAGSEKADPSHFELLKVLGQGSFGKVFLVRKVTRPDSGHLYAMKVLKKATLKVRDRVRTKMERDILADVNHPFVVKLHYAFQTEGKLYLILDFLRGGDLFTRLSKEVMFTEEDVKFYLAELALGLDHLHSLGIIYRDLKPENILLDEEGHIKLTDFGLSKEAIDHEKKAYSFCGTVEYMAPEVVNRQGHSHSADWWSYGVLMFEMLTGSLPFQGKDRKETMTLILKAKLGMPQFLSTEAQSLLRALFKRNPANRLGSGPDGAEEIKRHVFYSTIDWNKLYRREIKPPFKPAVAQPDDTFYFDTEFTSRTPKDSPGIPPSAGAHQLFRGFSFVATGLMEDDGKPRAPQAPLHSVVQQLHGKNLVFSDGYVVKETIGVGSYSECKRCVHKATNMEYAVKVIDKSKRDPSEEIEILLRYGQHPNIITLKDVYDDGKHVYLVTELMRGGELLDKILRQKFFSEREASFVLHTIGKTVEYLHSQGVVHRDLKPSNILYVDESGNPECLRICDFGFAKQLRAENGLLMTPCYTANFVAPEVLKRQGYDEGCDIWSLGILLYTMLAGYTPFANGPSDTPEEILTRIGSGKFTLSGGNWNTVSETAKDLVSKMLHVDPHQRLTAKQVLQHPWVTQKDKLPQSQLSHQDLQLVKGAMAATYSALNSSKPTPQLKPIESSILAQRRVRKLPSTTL
In short: as §1

TESK1 = TESK1 (Homo sapiens, UniProt Q15569)
In short: as §1

TIE2 = TIE2 (Homo sapiens, UniProt Q02763)
In short: as §1

TSSK1 = TSSK1 (Homo sapiens, UniProt Q9BXA7)
In short: as §1

ULK2 = ULK2 (Homo sapiens, UniProt Q8IYT8)
In short: as §1

p38d MAPK = p38d MAPK (Homo sapiens, UniProt O15264)
Sequence of p38d MAPK (O15264 whole entry): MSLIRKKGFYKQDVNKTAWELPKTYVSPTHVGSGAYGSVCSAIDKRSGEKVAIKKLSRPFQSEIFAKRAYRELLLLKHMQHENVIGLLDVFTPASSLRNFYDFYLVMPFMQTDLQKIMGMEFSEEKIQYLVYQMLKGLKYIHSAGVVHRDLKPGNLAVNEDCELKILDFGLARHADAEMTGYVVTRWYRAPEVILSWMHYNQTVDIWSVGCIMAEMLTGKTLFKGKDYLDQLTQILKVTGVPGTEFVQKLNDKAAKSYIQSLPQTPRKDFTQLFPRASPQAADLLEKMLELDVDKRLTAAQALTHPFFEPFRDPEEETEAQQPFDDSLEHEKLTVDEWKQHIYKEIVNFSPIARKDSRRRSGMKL
In short: as §1

[1] = 1 μM, cross-referenced with screen data of ref 37, read-out: activity remaining after treatment

Sequence of ABL (P00519 whole entry): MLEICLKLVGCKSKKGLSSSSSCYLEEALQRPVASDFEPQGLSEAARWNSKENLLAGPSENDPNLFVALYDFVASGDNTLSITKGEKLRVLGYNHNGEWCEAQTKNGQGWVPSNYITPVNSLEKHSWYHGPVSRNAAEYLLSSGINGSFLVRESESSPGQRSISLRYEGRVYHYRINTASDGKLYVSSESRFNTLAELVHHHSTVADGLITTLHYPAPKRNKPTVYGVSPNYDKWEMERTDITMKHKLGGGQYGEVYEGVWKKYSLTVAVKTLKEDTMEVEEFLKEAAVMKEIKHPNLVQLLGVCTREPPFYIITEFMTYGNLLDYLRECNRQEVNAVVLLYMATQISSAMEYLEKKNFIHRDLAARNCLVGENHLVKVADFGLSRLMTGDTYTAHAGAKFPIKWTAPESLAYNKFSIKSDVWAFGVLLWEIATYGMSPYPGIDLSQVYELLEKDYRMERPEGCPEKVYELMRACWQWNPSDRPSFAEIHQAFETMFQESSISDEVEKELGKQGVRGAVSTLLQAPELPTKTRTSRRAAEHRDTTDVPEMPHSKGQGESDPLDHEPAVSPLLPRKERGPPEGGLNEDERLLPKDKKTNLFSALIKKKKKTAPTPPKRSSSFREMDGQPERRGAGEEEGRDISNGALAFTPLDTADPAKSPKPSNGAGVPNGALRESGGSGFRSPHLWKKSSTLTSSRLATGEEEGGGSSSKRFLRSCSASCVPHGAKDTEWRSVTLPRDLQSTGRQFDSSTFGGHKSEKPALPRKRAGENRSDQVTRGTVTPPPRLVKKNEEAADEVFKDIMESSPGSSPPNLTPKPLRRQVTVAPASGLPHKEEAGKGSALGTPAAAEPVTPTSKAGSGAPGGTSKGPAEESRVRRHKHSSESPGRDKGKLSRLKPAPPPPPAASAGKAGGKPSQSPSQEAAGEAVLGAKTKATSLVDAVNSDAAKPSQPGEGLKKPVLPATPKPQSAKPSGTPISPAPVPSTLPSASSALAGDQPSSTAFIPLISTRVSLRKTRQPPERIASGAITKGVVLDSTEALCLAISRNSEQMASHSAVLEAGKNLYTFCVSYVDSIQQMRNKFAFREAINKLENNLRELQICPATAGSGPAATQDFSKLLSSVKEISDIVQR

CCc1ccccc1C(=O)Nc1n[nH]c2c(C)c(F)c(C3C(C#N)=C(C)N(C)C(C)=C3C#N)cc12 [BAY-3827, N-[5-(3,5-dicyano-1,2,6-trimethyl-4H-pyridin-4-yl)-6-fluoro-7-methyl-1H-indazol-3-yl]-2-ethylbenzamide]
remaining activity at 0.1 µM (ABL): 107% | remaining activity at 1 µM (ABL; 1 μM, ABL1, cross-referenced with screen data of ref 37, read-out: activity remaining after treatment): ≥ 99% | remaining activity at 0.1 µM (CAMK1): 80% | remaining activity at 0.1 µM (CDK2-Cyclin A): 99% | remaining activity at 1 µM (CDK2-Cyclin A; 1 μM, CDK2, cross-referenced with screen data of ref 37, read-out: activity remaining after treatment): ≥ 99% | remaining activity at 0.1 µM (CDK9-Cyclin T1): 97% | remaining activity at 0.1 µM (CK1δ): 103% | remaining activity at 0.1 µM (CK2): 85% | remaining activity at 0.1 µM (CLK2): 87% | remaining activity at 0.1 µM (DYRK1A): 96% | remaining activity at 0.1 µM (EPH-A4): 94% | remaining activity at 0.1 µM (FGF-R1): 89% | remaining activity at 0.1 µM (GSK3b): 74% | remaining activity at 0.1 µM (HIPK1): 94% | remaining activity at 0.1 µM (IRR): 89% | remaining activity at 0.1 µM (MAPKAP-K2): 82% | remaining activity at 0.1 µM (MARK1): 82% | remaining activity at 0.1 µM (MARK2): 77% | remaining activity at 0.1 µM (MEKK1): 97% | remaining activity at 0.1 µM (MELK): 81% | remaining activity at 1 µM (MELK; [1]): ≤ 50% | remaining activity at 0.1 µM (MKK1): 100% | remaining activity at 0.1 µM (MKK2): 97% | remaining activity at 0.1 µM (MKK6): 101% | remaining activity at 0.1 µM (MNK1): 126% | remaining activity at 0.1 µM (PAK2): 88% | remaining activity at 0.1 µM (PAK5): 100% | remaining activity at 0.1 µM (PIM1): 86% | remaining activity at 0.1 µM (PIM3): 101% | remaining activity at 1 µM (PIM3; [1]): ≥ 99% | remaining activity at 0.1 µM (PKCγ): 94% | remaining activity at 0.1 µM (PKD1): 100% | remaining activity at 0.1 µM (PRK2): 88% | inhibition at 0.1 µM (RSK1; 0.1 μM): 80 to 85% | remaining activity at 1 µM (RSK1; [1]): ≤ 50% | remaining activity at 0.1 µM (TESK1): 70% | remaining activity at 0.1 µM (TIE2): 69% | remaining activity at 0.1 µM (TSSK1): 88% | remaining activity at 0.1 µM (ULK2): 96% | remaining activity at 0.1 µM (p38d MAPK): 99%

CC1=C(C#N)C(c2ccc3c(c2)c(NC(=O)c2ccccc2C)nn3C)C(C#N)=C(C)N1 [BAY-974, N-[5-(3,5-dicyano-2,6-dimethyl-1,4-dihydropyridin-4-yl)-1-methylindazol-3-yl]-2-methylbenzamide]
remaining activity at 0.1 µM (ABL): 59% | remaining activity at 0.1 µM (CAMK1): 78% | remaining activity at 0.1 µM (CDK2-Cyclin A): 96% | remaining activity at 0.1 µM (CDK9-Cyclin T1): 114% | remaining activity at 0.1 µM (CK1δ): 116% | remaining activity at 0.1 µM (CK2): 79% | remaining activity at 0.1 µM (CLK2): 93% | remaining activity at 0.1 µM (DYRK1A): 101% | remaining activity at 0.1 µM (EPH-A4): 81% | remaining activity at 0.1 µM (FGF-R1): 91% | remaining activity at 0.1 µM (GSK3b): 93% | remaining activity at 0.1 µM (HIPK1): 91% | remaining activity at 0.1 µM (IRR): 88% | remaining activity at 0.1 µM (MAPKAP-K2): 84% | remaining activity at 0.1 µM (MARK1): 93% | remaining activity at 0.1 µM (MARK2): 87% | remaining activity at 0.1 µM (MEKK1): 99% | remaining activity at 0.1 µM (MELK): 90% | remaining activity at 0.1 µM (MKK1): 100% | remaining activity at 0.1 µM (MKK2): 95% | remaining activity at 0.1 µM (MKK6): 94% | remaining activity at 0.1 µM (MNK1): 100% | remaining activity at 0.1 µM (PAK2): 88% | remaining activity at 0.1 µM (PAK5): 82% | remaining activity at 0.1 µM (PIM1): 82% | remaining activity at 0.1 µM (PIM3): 125% | remaining activity at 0.1 µM (PKCγ): 115% | remaining activity at 0.1 µM (PKD1): 84% | remaining activity at 0.1 µM (PRK2): 83% | remaining activity at 0.1 µM (RSK1; 0.1 μM): 66% | remaining activity at 0.1 µM (TESK1): 88% | remaining activity at 0.1 µM (TIE2): 103% | remaining activity at 0.1 µM (TSSK1): 55% | remaining activity at 0.1 µM (ULK2): 60% | remaining activity at 0.1 µM (p38d MAPK): 108%
